Results as given in PMC4360375 (Journal of Medicinal Chemistry, 2015).

molecular target: T1, rGAT1 (Rattus norvegicus, UniProt P23978); test: [3H]-GABA uptake inhibition assay in HEK293 cells stably expressing rGAT1; format: cell-based; conditions: 100 μM compound
T1 construct: Y prefix of 'YrGAT-1' (own knowledge: yellow fluorescent protein, YFP, fused to rGAT1 in this group's constructs); expressed in transfected cells; host or cells: HEK293

Structure (SMILES) | effect on [3H]-GABA uptake, in words
N[C@@H](Cc1cc(I)c(Oc2cc(I)c(O)c(I)c2)c(I)c1)C(=O)O [27b, levothyroxine] | reduced uptake, albeit weaker than 27a
O=C(CCN1CCCC1C(=O)O)Nc1ccccc1Oc1ccccc1 (centres unmarked) [compound 18] | some weak activity

same assay, conditions: HEK293, 100 μM of the respective compound; n = 3; relative to saline

Structure (SMILES) | remaining activity at 100 µM [%]
N[C@@H](Cc1cc(I)c(Oc2cc(I)c(O)c(I)c2)c(I)c1)C(=O)O [27b, levothyroxine] | 54.2
N[C@H](Cc1cc(I)c(Oc2cc(I)c(O)c(I)c2)c(I)c1)C(=O)O [27c, dextrothyroxine] | 127
CCN(CCC(=O)O)Cc1nc2c(C)cccc2c(=O)[nH]1 [compound 12] | 105
CC(C(=O)Nc1ccc(Br)cc1Br)N1CCCC(CC(=O)O)C1 (centres unmarked) [compound 13] | 93.2
O=C(O)CN1CCC(CCc2ccccc2C(F)(F)F)CC1 [compound 14] | 99
CC(C(=O)O)N1CCCN(C(=O)c2ccccc2C(F)(F)F)CC1 (centres unmarked) [compound 15] | 104
O=C(O)CN1CCCC1Cc1ccccc1Cl (centres unmarked) [compound 16] | 95.1
O=C(CCN1CCCC1C(=O)O)Nc1ccccc1Oc1ccccc1 (centres unmarked) [compound 18] | 79.3
Fc1cc(Br)cc(CN2CCCC(c3nnn[nH]3)C2)c1 (centres unmarked) [compound 19] | 91
Cc1nn(Cc2ccccc2Cl)c(C)c1CN(C)C(C)C(=O)O (centres unmarked) [compound 20] | 93.9
O=C(CN1CCC[C@H]1C(=O)O)NC(c1ccc(F)cc1)c1cccs1 (some centres unmarked) [compound 21] | 94.7

tested on: GABA uptake, rat synaptosome; test: not given; conditions: Figure 2; rat synaptosome GABA uptake; read-out: literature IC50; cited from earlier work

Structure (SMILES) | IC50 [nM]
O=C(O)[C@@H]1CCCN(CCCCCC(c2ccccc2)c2ccccc2)C1 [compound 9, OC(=O)[C@@H]1CCCN(C1)CCCCCC(c1ccccc1)c1ccccc1] | 1590

same assay, conditions: literature data set; ref 10.1016/S0968-0896(01)00148-1; cited from earlier work

Structure (SMILES) | pIC50
O=C(O)[C@@H]1CCCN(CCO/N=C(\c2ccccc2)C2CC2)C1 [An_2001/6_14, O(\N=C(\C1CC1)/c1ccccc1)CCN1C[C@@H](CCC1)C(O)=O] | 5.907
CC(C)C/C(=N/OCCN1CCC[C@@H](C(=O)O)C1)c1ccccc1 [An_2001/6_15, O(\N=C(\CC(C)C)/c1ccccc1)CCN1C[C@@H](CCC1)C(O)=O] | 6.553
O=C(O)[C@@H]1CCCN(CCO/N=C(/Cc2ccccc2)c2ccccc2)C1 [An_2001/6_16, O(\N=C(\Cc1ccccc1)/c1ccccc1)CCN1C[C@@H](CCC1)C(O)=O] | 6.87
O=C(O)[C@@H]1CCCN(CCO/N=C(/Cc2ccc(F)cc2)c2ccc(F)cc2)C1 [An_2001/6_17, Fc1ccc(cc1)C\C(=N\OCCN1C[C@@H](CCC1)C(O)=O)\c1ccc(F)cc1] | 6.036
O=C(O)[C@@H]1CCCN(CCO/N=C(/Cc2ccccc2F)c2ccccc2F)C1 [An_2001/6_18, Fc1ccccc1C\C(=N\OCCN1C[C@@H](CCC1)C(O)=O)\c1ccccc1F] | 7.097
O=C(O)[C@@H]1CCCN(CCON=C(Cc2ccccc2)Cc2ccccc2)C1 [An_2001/6_19, O(\N=C(\Cc1ccccc1)/Cc1ccccc1)CCN1C[C@@H](CCC1)C(O)=O] | 5.987
CC/C=C(/C=N/OCCN1CCC[C@@H](C(=O)O)C1)c1ccccc1 [An_2001/6_20, O(\N=C\C(=C\CC)\c1ccccc1)CCN1C[C@@H](CCC1)C(O)=O] | 6.125
CC(C)/C=C(/C=N/OCCN1CCC[C@@H](C(=O)O)C1)c1ccccc1 [An_2001/6_21, O(\N=C\C(=C\C(C)C)\c1ccccc1)CCN1C[C@@H](CCC1)C(O)=O] | 6.569
CC(C)C/C=C(/C=N/OCCN1CCC[C@@H](C(=O)O)C1)c1ccccc1 [An_2001/6_22, O(\N=C\C(=C\CC(C)C)\c1ccccc1)CCN1C[C@@H](CCC1)C(O)=O] | 6.538
O=C(O)[C@@H]1CCCN(CCO/N=C/C2(c3ccccc3)CCCC2)C1 [An_2001/6_23, O(\N=C\C1(CCCC1)c1ccccc1)CCN1C[C@@H](CCC1)C(O)=O] | 6.337
O=C(O)[C@@H]1CCCN(CCO/N=C2\CCCC[C@@H]2c2ccccc2)C1 [An_2001/6_24, O(\N=C\1/CCCC[C@@H]/1c1ccccc1)CCN1C[C@@H](CCC1)C(O)=O] | 6.489
O=C(O)[C@@H]1CCCN(CCO/N=C2\CCCC=C2c2ccccc2)C1 [An_2001/6_25, O(\N=C\1/CCCC=C/1c1ccccc1)CCN1C[C@@H](CCC1)C(O)=O] | 6.456
O=C(O)[C@@H]1CCCN(CCO/N=C2\CCCC\C2=C/c2ccccc2)C1 [An_2001/6_26, O(\N=C\1/CCCC/C/1=C\c1ccccc1)CCN1C[C@@H](CCC1)C(O)=O] | 5.013
O=C(O)[C@@H]1CCCN(CCO/N=C2\c3ccccc3CC[C@@H]2c2ccccc2)C1 [An_2001/6_27, O(\N=C\1/c2c(CC[C@@H]/1c1ccccc1)cccc2)CCN1C[C@@H](CCC1)C(O)=O] | 6.058
O=C(O)[C@@H]1CCCN(CCO/N=C2\C[C@H](c3ccccc3)c3ccccc32)C1 [An_2001/6_28, O(\N=C\1/C[C@@H](c2c/1cccc2)c1ccccc1)CCN1C[C@@H](CCC1)C(O)=O] | 5.852
O=C(O)[C@@H]1CCCN(CCOc2ccccc2)C1 [An_2001/6_32, O(CCN1C[C@@H](CCC1)C(O)=O)c1ccccc1] | 5.046
O=C(O)[C@@H]1CCCN(CCOc2ccccc2-c2ccccc2)C1 [An_2001/6_33, O(CCN1C[C@@H](CCC1)C(O)=O)c1ccccc1-c1ccccc1] | 5.235
O=C(O)[C@@H]1CCCN(CCOc2ccccc2Cc2ccccc2)C1 [An_2001/6_34, O(CCN1C[C@@H](CCC1)C(O)=O)c1ccccc1Cc1ccccc1] | 5.158
O=C(O)[C@@H]1CCCN(CCOCc2ccccc2-c2ccccc2)C1 [An_2001/6_35, O(Cc1ccccc1-c1ccccc1)CCN1C[C@@H](CCC1)C(O)=O] | 6.476
O=C(O)[C@@H]1CCCN(CCOCc2ccc3ccccc3c2-c2ccccc2)C1 [An_2001/6_36, O(Cc1ccc2c(cccc2)c1-c1ccccc1)CCN1C[C@@H](CCC1)C(O)=O] | 5.098
O=C(O)[C@@H]1CCCN(CCOCc2ccccc2Cc2ccccc2)C1 [An_2001/6_37, O(Cc1ccccc1Cc1ccccc1)CCN1C[C@@H](CCC1)C(O)=O] | 6.495
O=C(O)[C@@H]1CCCN(CCOCc2cccc(Cc3ccccc3)c2)C1 [An_2001/6_38, O(Cc1cc(ccc1)Cc1ccccc1)CCN1C[C@@H](CCC1)C(O)=O] | 5.523
O=C(O)[C@@H]1CCCN(CCOCCc2ccccc2-c2ccccc2)C1 [An_2001/6_39, O(CCc1ccccc1-c1ccccc1)CCN1C[C@@H](CCC1)C(O)=O] | 6.959
O=C(O)[C@@H]1CCCN(CCOCCc2ccccc2Cc2ccccc2)C1 [An_2001/6_40, O(CCc1ccccc1Cc1ccccc1)CCN1C[C@@H](CCC1)C(O)=O] | 7
O=C(O)[C@@H]1CCCN(CCOC/C(=C/c2ccccc2)c2ccccc2)C1 [An_2001/6_41, O(CCN1C[C@@H](CCC1)C(O)=O)C\C(=C\c1ccccc1)\c1ccccc1] | 6.297
O=C(O)[C@@H]1CCCN(CCOC/C(=C\c2ccccc2)c2ccccc2)C1 [An_2001/6_42, O(CCN1C[C@@H](CCC1)C(O)=O)C\C(=C/c1ccccc1)\c1ccccc1] | 5.523
O=C(O)[C@@H]1CCCN(CCOCCc2ccccc2)C1 [An_2001/6_43, O(CCc1ccccc1)CCN1C[C@@H](CCC1)C(O)=O] | 5.347
CC(C)CN(CCOCCN1CCC[C@@H](C(=O)O)C1)c1ccccc1 [An_2001/6_44, O(CCN1C[C@@H](CCC1)C(O)=O)CCN(CC(C)C)c1ccccc1] | 6.553
CC(C)CN(CCOCCN1CCC[C@@H](C(=O)O)C1)c1ccc(F)cc1Cl [An_2001/6_45, Clc1cc(F)ccc1N(CC(C)C)CCOCCN1C[C@@H](CCC1)C(O)=O] | 6.827

same assay, conditions: literature data set; ref 10.1021/jm00064a005; cited from earlier work

Structure (SMILES) | pIC50
O=C(O)C1=CCCN(CCOC(c2ccc(C(F)(F)F)cc2)c2ccc(C(F)(F)F)cc2)C1 [Cl-966, FC(F)(F)c1ccc(cc1)C(OCCN1CC(=CCC1)C(O)=O)c1ccc(cc1)C(F)(F)F] | 6.357
O=C(O)C1=CCCN(CCC=C(c2ccccc2)c2ccccc2)C1 [SK&F-100330-A, OC(=O)C=1CN(CCC=1)CC\C=C(\c1ccccc1)/c1ccccc1] | 6.699
Cc1ccsc1C(=CCCN1CCC[C@@H](C(=O)O)C1)c1sccc1C [compound 5, tiagabine] | 7.174
O=C(O)[C@@H]1CCCN(CCC=C2c3ccccc3-c3ccccc32)C1 [compound 7, OC(=O)[C@@H]1CCCN(C1)CC\C=C/1\c2c(-c3c\1cccc3)cccc2] | 5.717

same assay, conditions: literature data set; ref 10.1021/jm980492e; cited from earlier work

Structure (SMILES) | pIC50
O=C(O)[C@@H]1CCCN(CCOCCC(c2ccccc2)c2ccccc2)C1 [compound 8, O(CCC(c1ccccc1)c1ccccc1)CCN1C[C@@H](CCC1)C(O)=O] | 7.26
O=C(O)[C@@H]1CCCN(CCCCCC(c2ccccc2)c2ccccc2)C1 [compound 9, OC(=O)[C@@H]1CCCN(C1)CCCCCC(c1ccccc1)c1ccccc1] | 5.799

same assay, conditions: literature data set; ref 10.1021/jm981027k; cited from earlier work

Structure (SMILES) | pIC50
O=C(O)C1=CCCN(CCON=C(c2ccccc2)c2ccccc2)C1 [NO-711, O(\N=C(\c1ccccc1)/c1ccccc1)CCN1CC(=CCC1)C(O)=O] | 7.328
Cc1ccsc1C(=COCCN1CCC[C@@H](C(=O)O)C1)c1sccc1C [compound 6, s1ccc(C)c1\C(=C\OCCN1C[C@@H](CCC1)C(O)=O)\c1sccc1C] | 7.854
O=C(O)[C@@H]1CCCN(CCO/N=C(/c2ccccc2)c2ccccn2)C1 [compound 11, O(\N=C(\c1ccccc1)/c1ncccc1)CCN1C[C@@H](CCC1)C(O)=O] | 5.684

same assay, conditions: literature data set; ref 10.1021/jm990513k; cited from earlier work

Structure (SMILES) | pIC50
O=C(O)[C@@H]1CCCN(CCOC/C=C2\c3ccccc3CCc3ccc(Cl)cc32)C1 [An_2001/5_35, Clc1cc\2c(CCc3c(cccc3)/C/2=C\COCCN2C[C@@H](CCC2)C(O)=O)cc1] | 5.603
O=C(O)[C@@H]1CCCN(CCCOCC=C2c3ccccc3CCc3ccccc32)C1 [An_2001/5_36, O(CCCN1C[C@@H](CCC1)C(O)=O)C\C=C/1\c2c(CCc3c\1cccc3)cccc2] | 6.337
O=C(O)[C@@H]1CCCN(CCOCCC2c3ccccc3CCc3ccccc32)C1 [An_2001/5_37, O(CCC1c2c(CCc3c1cccc3)cccc2)CCN1C[C@@H](CCC1)C(O)=O] | 6.252
O=C(O)C1=CCCN(CCOCCC2c3ccccc3CCc3ccccc32)C1 [An_2001/5_38, O(CCC1c2c(CCc3c1cccc3)cccc2)CCN1CC(=CCC1)C(O)=O] | 5.921
